Assay results published in patent publication US11484479B2, “Formulation for the elimination of cariogenic and opportunistic pathogens within the oral cavity” (Research Institute at Nationwide Children's Hospital, priority 2015, dated 2022).

Columns and labels:
S. mutans = experiment: Toxic cargo DM assay; assay type: cell-based, Streptococcus mutans; conditions: monoculture, 1 min; CHX 0.033% and H2O2 0.25% final concentration, no DM (FIG. 8A left)
Description: (§1) DM was hydrated in THB only (control) or THB containing either hydrogen peroxide (1.5%) or chlorhexidine (0.2%) to create a 10% (w/v) slurry. For Applicant's DM assays, 250 μl of hydrated DM G25 superfine (125 μl final volume; 12.5 mg) was added to a Micro Bio-Spin chromatography column (BioRad, Hercules, Calif.) and excess liquid was removed by centrifugation at 100×g for 30 seconds, leaving DM with toxic cargo in the lumen. 125 μl of THB (the same volume of excess toxic cargo removed by filtration) was added to the DM column to create a 10% slurry (w/v), followed by the immediate addition of 500 μl of culture as described above for Applicant's basic DM assay. For control assays containing no DM, 125 μl of THB or THB containing toxic cargo (the same volume that is present in the DM lumen) was added to the spin column containing 125 THB followed by the addition of 500 μl of culture as described above for Applicant's basic DM assay. After incubation for 1 minute at RT, the cell/DM mixture was centrifuged for 1 minute at 100×g. The flow-through was serial diluted in PBS, and serial dilutions were plated onto THB (S. gordonii) or THB containing 1.5 μg/ml erythromycin (S. mutans) or LB (E. coli) agar and incubated at 37° C.+5% CO2. […]

S. gordonii = experiment: Toxic cargo DM assay; assay type: cell-based, Streptococcus gordonii; conditions: monoculture, 1 min; CHX 0.033% and H2O2 0.25% final concentration, no DM (FIG. 8A left)
Description: as §1

Structure (SMILES)	Total viable S. mutans after antimicrobial alone (no DM) (S. mutans)	Total viable S. gordonii after antimicrobial alone (no DM) (S. gordonii)
[H]/N=C(\N/C(=N/[H])NCCCCCCNC(=N)NC(=N)Nc1ccc(Cl)cc1)Nc1ccc(Cl)cc1 [CHX, chlorhexidine]	decreased the amount of total viable S. mutans and S. gordonii	decreased the amount of total viable S. mutans and S. gordonii
OO [H2O2, hydrogen peroxide]	decreased the amount of total viable S. mutans and S. gordonii	decreased the amount of total viable S. mutans and S. gordonii
